Test results reported in publication PMC8766848, “The Structural Basis of Babesia orientalis Lactate Dehydrogenase” (Frontiers in Cellular and Infection Microbiology, 2022).

Target: T1, Babesia orientalis lactate dehydrogenase (BoLDH) (Babesia orientalis, UniProt A0A8X6EH37)
T1 construct: full-length ORF (330 residues), N-terminal His6 tag, recombinant rBoLDH
T1 sequence (A0A8X6EH37 1-330): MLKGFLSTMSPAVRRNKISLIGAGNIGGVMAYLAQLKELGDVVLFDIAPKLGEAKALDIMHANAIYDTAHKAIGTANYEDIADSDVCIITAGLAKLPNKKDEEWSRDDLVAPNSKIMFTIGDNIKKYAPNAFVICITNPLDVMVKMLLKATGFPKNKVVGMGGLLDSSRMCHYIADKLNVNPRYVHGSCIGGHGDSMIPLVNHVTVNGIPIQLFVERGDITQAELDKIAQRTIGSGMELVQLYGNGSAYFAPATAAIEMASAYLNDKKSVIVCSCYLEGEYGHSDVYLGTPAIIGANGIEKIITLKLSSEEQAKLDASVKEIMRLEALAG
Assay: Michaelis-Menten inhibition kinetics, lactate to pyruvate, NADH absorbance at […] nm, […] gossypol
Format: biochemical

SMILES: Cc1cc2c(C(C)C)c(O)c(O)c(C=O)c2c(O)c1-c1c(C)cc2c(C(C)C)c(O)c(O)c(C=O)c2c1O [gossypol]
- Ki: 4.24 ± 0.25 µM
